Source: PubChem BioAssay AID328 (DTP/NCI, 2004)
Several values for one entry are separate records, joined by “and”; a condition that tells them apart may be missing. Identical values can stand only once. Toxic doses and inconclusive results are not listed. Rule for the calls: active = survival T/C of 150% or more; inactive = T/C below 125% in these data. Non-standard residues stand in square brackets, D forms with d. Residues, ends and D or L forms follow the SMILES beside them. ξ: configuration not given here. *: point of attachment. Boc = CC(C)(C)OC(=O)*; ξP = O=C(O)C1CCCN1

Tested on: BDF1 mice, P388 leukemia ip, median survival T/C
Assay: NCI In Vivo Anticancer Drug Screen. Data for tumor model P388 Leukemia (intraperitoneal) in B6D2F1 (BDF1) mice
Conditions: endpoint: median survival time, higher = longer survival
Method in brief: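 T/C = treated-group survival ÷ vehicle-control survival; tumour transplanted into mice before dosing.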

[1] = dose: 100.0 mg/kg/injection, schedule: Q01DX009 (ip), vehicle: Klucel (hydroxypropylcellulose) (HPC)
[2] = dose: 100.0 mg/kg/injection, schedule: Q04DX003 (ip), vehicle: Klucel (hydroxypropylcellulose) (HPC)
[3] = dose: 200.0 mg/kg/injection, schedule: Q01DX009 (ip), vehicle: Klucel (hydroxypropylcellulose) (HPC)
[4] = dose: 200.0 mg/kg/injection, schedule: Q04DX003 (ip), vehicle: Klucel (hydroxypropylcellulose) (HPC)
[5] = dose: 400.0 mg/kg/injection, schedule: Q01DX009 (ip), vehicle: Klucel (hydroxypropylcellulose) (HPC)
[6] = dose: 400.0 mg/kg/injection, schedule: Q04DX003 (ip), vehicle: Klucel (hydroxypropylcellulose) (HPC)
[7] = dose: 25.0 mg/kg/injection, schedule: Q01DX009 (ip), vehicle: saline with Tween-80
[8] = dose: 100.0 mg/kg/injection, schedule: Q01DX009 (ip), vehicle: water
[9] = dose: 200.0 mg/kg/injection, schedule: Q01DX009 (ip), vehicle: water
[10] = dose: 400.0 mg/kg/injection, schedule: Q01DX009 (ip), vehicle: water
[11] = dose: 100.0 mg/kg/injection, schedule: Q04DX003 (ip), vehicle: alcohol
[12] = dose: 200.0 mg/kg/injection, schedule: Q04DX003 (ip), vehicle: alcohol
[13] = dose: 400.0 mg/kg/injection, schedule: Q04DX003 (ip), vehicle: saline
[14] = dose: 12.5 mg/kg/injection, schedule: Q01DX009 (ip), vehicle: saline

Measured: T/C

COc1ccc2c(c1C)CCC1(CO)C(C(C)=O)=CCC21 (configuration not stated)
inactive: [1] 109 % of control | [2] 100 % of control | [3] 95 % of control | [4] 100 % of control | [5] 100 % of control | [6] 100 % of control

COc1ccc(OC)c2nc3c(=O)[nH]c(=O)[nH]c3nc12
inactive: dose: 55.0 mg/kg/injection, schedule: Q01DX010 (ip), vehicle: water 100 % of control | dose: 80.0 mg/kg/injection, schedule: Q01DX010 (ip), vehicle: water 109 % of control | dose: 120.0 mg/kg/injection, schedule: Q01DX010 (ip), vehicle: water 109 % of control | dose: 180.0 mg/kg/injection, schedule: Q01DX010 (ip), vehicle: water 118 % of control

COC1C(=[N+]=[N-])C(=O)NC(=O)N1C (configuration not stated)
inactive: dose: 12.5 mg/kg/injection, schedule: Q04DX003 (ip), vehicle: water 120 % of control

CCc1c(CC(=O)O)c2cc(C)ccc2n1Cc1ccc(Cl)cc1
inactive: [7] 104 % of control | dose: 50.0 mg/kg/injection, schedule: Q01DX009 (ip), vehicle: saline with Tween-80 109 % of control and 118 % of control | dose: 100.0 mg/kg/injection, schedule: Q01DX009 (ip), vehicle: saline with Tween-80 104 % of control and 109 % of control

N#CCSc1ncnc2nc[nH]c12
inactive: dose: 30.0 mg/kg/injection, schedule: Q01DX010 (ip), vehicle: saline 95 % of control and 100 % of control | dose: 60.0 mg/kg/injection, schedule: Q01DX010 (ip), vehicle: saline 100 % of control | dose: 120.0 mg/kg/injection, schedule: Q01DX010 (ip), vehicle: saline 100 % of control

CC1(C)C/C(=C\c2ccccc2)C(=O)c2ccccc21
inactive: dose: 25.0 mg/kg/injection, schedule: Q01DX009 (ip), vehicle: water 106 % of control | dose: 50.0 mg/kg/injection, schedule: Q01DX009 (ip), vehicle: water 95 % of control | [8] 106 % of control | [9] 88 % of control | [10] 100 % of control

C1CC[N-]CC1.C1CC[N-]CC1.C1CC[N-]CC1.C1CC[N-]CC1.[Cl][Co][Cl]
inactive: [7] 118 % of control | dose: 33.0 mg/kg/injection, schedule: Q01DX009 (ip), vehicle: saline with Tween-80 100 % of control | dose: 75.0 mg/kg/injection, schedule: Q01DX009 (ip), vehicle: saline with Tween-80 120 % of control

C[C@@H]1C[C@@]2(C)[C@@H](CC[C@@H]3[C@@H]2CC[C@]2(C)OC(=O)CC[C@@H]32)CC1=O
inactive: [11] 105 % of control | [12] 95 % of control | dose: 264.0 mg/kg/injection, schedule: Q04DX003 (ip), vehicle: saline 95 % of control and 110 % of control | [13] 105 % of control

CC(=O)OC1C=CCC23C(=O)C=CC(=O)C12C(=O)c1ccccc1C3=O (configuration not stated)
inactive: dose: 1.56 mg/kg/injection, schedule: Q01DX009 (ip), vehicle: saline 102 % of control | dose: 3.12 mg/kg/injection, schedule: Q01DX009 (ip), vehicle: saline 93 % of control | dose: 6.25 mg/kg/injection, schedule: Q01DX009 (ip), vehicle: saline 95 % of control | [14] 95 % of control | dose: 50.0 mg/kg/injection, schedule: Q01DX009 (ip), vehicle: saline 107 % of control

CC([N+](=O)[O-])S(=O)(=O)c1ccc(Cl)cc1 (configuration not stated)
inactive: dose: 50.0 mg/kg/injection, schedule: Q01DX001 (ip), vehicle: saline sonified 95 % of control | dose: 100.0 mg/kg/injection, schedule: Q01DX001 (ip), vehicle: saline sonified 100 % of control | dose: 200.0 mg/kg/injection, schedule: Q01DX001 (ip), vehicle: saline sonified 100 % of control

O=C1C=C(Nc2nc(O)cc(=O)[nH]2)c2ccccc2C1=O
inactive: dose: 37.5 mg/kg/injection, schedule: Q01DX001 (ip), vehicle: Klucel (hydroxypropylcellulose) (HPC) 100 % of control | dose: 75.0 mg/kg/injection, schedule: Q01DX001 (ip), vehicle: Klucel (hydroxypropylcellulose) (HPC) 100 % of control | dose: 150.0 mg/kg/injection, schedule: Q01DX001 (ip), vehicle: Klucel (hydroxypropylcellulose) (HPC) 100 % of control | dose: 150.0 mg/kg/injection, schedule: Q04DX003 (ip), vehicle: Klucel (hydroxypropylcellulose) (HPC) 95 % of control

CC(C)(C)OC(=O)NCC(=O)N1CCCC1C(=O)O (stereo not drawn) (Boc-Gly-[ξP]-OH)
inactive: dose: 50.0 mg/kg/injection, schedule: Q01DX005 (ip), vehicle: saline 92 % of control | dose: 100.0 mg/kg/injection, schedule: Q01DX005 (ip), vehicle: saline 90 % of control | dose: 200.0 mg/kg/injection, schedule: Q01DX005 (ip), vehicle: saline 100 % of control

Cc1ccc(S(=O)(=O)N(CC(=O)O)c2cccc(Cl)c2)cc1
inactive: [1] 100 % of control | [2] 100 % of control | [3] 100 % of control | [4] 104 % of control | [5] 104 % of control | [6] 100 % of control

Cn1ncc2cncnc21
inactive: [11] 113 % of control | [12] 95 % of control | dose: 400.0 mg/kg/injection, schedule: Q04DX003 (ip), vehicle: alcohol 100 % of control

OCCNCCNCCO
inactive: dose: 50.0 mg/kg/injection, schedule: Q01DX001 (ip), vehicle: saline 100 % of control | dose: 100.0 mg/kg/injection, schedule: Q01DX001 (ip), vehicle: saline 104 % of control | dose: 200.0 mg/kg/injection, schedule: Q01DX001 (ip), vehicle: saline 104 % of control

C1CNC2NCCNC2N1 (configuration not stated)
inactive: dose: 66.0 mg/kg/injection, schedule: Q04DX003 (ip), vehicle: saline 104 % of control | dose: 100.0 mg/kg/injection, schedule: Q04DX003 (ip), vehicle: saline 100 % of control | dose: 117.0 mg/kg/injection, schedule: Q04DX003 (ip), vehicle: saline 109 % of control | dose: 150.0 mg/kg/injection, schedule: Q04DX003 (ip), vehicle: saline 100 % of control | dose: 200.0 mg/kg/injection, schedule: Q04DX003 (ip), vehicle: saline 120 % of control | dose: 266.0 mg/kg/injection, schedule: Q04DX003 (ip), vehicle: saline 122 % of control
active: dose: 132.0 mg/kg/injection, schedule: Q01DX009 (ip), vehicle: saline 156 % of control | dose: 178.0 mg/kg/injection, schedule: Q04DX003 (ip), vehicle: saline 154 % of control | dose: 300.0 mg/kg/injection, schedule: Q01DX009 (ip), vehicle: saline 150 % of control | dose: 400.0 mg/kg/injection, schedule: Q01DX009 (ip), vehicle: saline 150 % of control | [13] 172 % of control

COc1ccc(C=O)c(O)c1
inactive: [1] 90 % of control | [2] 92 % of control | [3] 104 % of control | [5] 90 % of control | [6] 96 % of control

CC(C)C(C=O)C(O)(C(F)(F)F)C(F)(F)Cl (configuration not stated)
inactive: [14] 95 % of control | dose: 25.0 mg/kg/injection, schedule: Q01DX009 (ip), vehicle: saline 100 % of control

O=[N+]([O-])C1(CO)COC(c2ccccc2)OC1 (configuration not stated)
inactive: [8] 109 % of control | dose: 100.0 mg/kg/injection, schedule: Q04DX003 (ip), vehicle: water 95 % of control | [9] 86 % of control | dose: 200.0 mg/kg/injection, schedule: Q04DX003 (ip), vehicle: water 100 % of control | [10] 90 % of control | dose: 400.0 mg/kg/injection, schedule: Q04DX003 (ip), vehicle: water 104 % of control

C1=CC(=P(c2ccccc2)(c2ccccc2)c2ccccc2)C=C1
inactive: dose: 50.0 mg/kg/injection, schedule: Q01DX010 (ip), vehicle: saline 100 % of control | dose: 100.0 mg/kg/injection, schedule: Q01DX010 (ip), vehicle: saline 100 % of control | dose: 200.0 mg/kg/injection, schedule: Q01DX010 (ip), vehicle: saline 100 % of control | dose: 400.0 mg/kg/injection, schedule: Q01DX010 (ip), vehicle: saline 100 % of control

CN(C)c1ccc(C(O)(Cc2cccc(C#N)c2)c2ccc(N(C)C)cc2)cc1
inactive: dose: 100.0 mg/kg/injection, schedule: Q04DX002 (ip), vehicle: saline with Tween-80 95 % of control | dose: 200.0 mg/kg/injection, schedule: Q04DX002 (ip), vehicle: saline with Tween-80 89 % of control | dose: 400.0 mg/kg/injection, schedule: Q04DX002 (ip), vehicle: saline with Tween-80 98 % of control
